{"source": "patent US20260250257A1", "about": "“ANTIBACTERIAL AND SYNERGISTIC ACTIVE COMPOUND AND USE THEREOF” (EAST CHINA UNIVERSITY OF SCIENCE AND TECHNOLOGY, priority 2023, published 2026)", "assay_type_in_all_cases": "cell-based", "key": {"[1]": {"tested_on": "ATCC13883 strain (Klebsiella pneumoniae)", "assay": "Checkerboard antibacterial synergistic activity test with polymyxin E (FIC)", "parameters": "key: FIC≤0.5 synergy; 0.5–1 additive; 1–2 indifferent; ≥2 antagonism", "settings": "combined with polymyxin E", "procedure,_shortened": "(§1)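 Broth checkerboard synergy with colistin; listed dilutions are working solutions, not final well levels. Overnight incubation, 16 h at 37° C.; FIC ≤0.5 denotes synergy, ≥2 antagonism.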"}, "[2]": {"tested_on": "ATCC19606 strain (Acinetobacter baumannii)", "assay": "Checkerboard antibacterial synergistic activity test with polymyxin E (FIC)", "parameters": "key: FIC≤0.5 synergy; 0.5–1 additive; 1–2 indifferent; ≥2 antagonism", "settings": "combined with polymyxin E", "procedure,_shortened": "as §1"}, "[3]": {"tested_on": "ATCC25922 strain (Escherichia coli)", "assay": "Checkerboard antibacterial synergistic activity test with polymyxin E (FIC)", "parameters": "key: FIC≤0.5 synergy; 0.5–1 additive; 1–2 indifferent; ≥2 antagonism", "settings": "combined with polymyxin E", "procedure,_shortened": "as §1"}, "[4]": {"tested_on": "ATCC9027 strain (Pseudomonas aeruginosa)", "assay": "Checkerboard antibacterial synergistic activity test with polymyxin E (FIC)", "parameters": "key: FIC≤0.5 synergy; 0.5–1 additive; 1–2 indifferent; ≥2 antagonism", "settings": "combined with polymyxin E", "procedure,_shortened": "as §1"}, "[5]": {"tested_on": "ATCC13883 strain (Klebsiella pneumoniae)", "assay": "Broth microdilution, antibacterial activity of the compound used alone", "text": "(§2) The broth microdilution method was used to test the antibacterial effects of the compounds of the present invention against various Gram-negative bacterial strains when used alone."}, "[6]": {"tested_on": "ATCC19606 strain (Acinetobacter baumannii)", "assay": "Broth microdilution, antibacterial activity of the compound used alone", "text": "as §2"}, "[7]": {"tested_on": "ATCC25922 strain (Escherichia coli)", "assay": "Broth microdilution, antibacterial activity of the compound used alone", "text": "as §2"}, "[8]": {"tested_on": "ATCC9027 strain (Pseudomonas aeruginosa)", "assay": "Broth microdilution, antibacterial activity of the compound used alone", "text": "as §2"}}, "data": [{"smiles": "NC(N)=Nc1nc(-c2ccc(F)cc2Oc2ccc(Cl)cc2Cl)c(Cl)s1", "note": "[Compound I-90]", "values": [{"measurement": "Synergistic activity (FIC value) ATCC13883", "setting": "[1]", "result": 0.13}, {"measurement": "Synergistic activity (FIC value) ATCC19606", "setting": "[2]", "result": 0.03}, {"measurement": "Synergistic activity (FIC value) ATCC25922", "setting": "[3]", "result": 0.15}, {"measurement": "Synergistic activity (FIC value) ATCC9027", "setting": "[4]", "result": 0.18}, {"measurement": "Antibacterial activity of the compound of Formula I, ATCC13883", "setting": "[5]", "result": 256, "unit": "µg/mL"}, {"measurement": "Antibacterial activity of the compound of Formula I, ATCC19606", "setting": "[6]", "result": 256, "unit": "µg/mL"}, {"measurement": "Antibacterial activity of the compound of Formula I, ATCC25922", "setting": "[7]", "result": 256, "unit": "µg/mL"}, {"measurement": "Antibacterial activity of the compound of Formula I, ATCC9027", "setting": "[8]", "result": 256, "unit": "µg/mL"}]}, {"smiles": "CCc1sc(N=C2NCCCN2)nc1-c1c(SC)cc2ccc(C)cn12", "note": "[Compound I-193]", "values": [{"measurement": "Synergistic activity (FIC value) ATCC13883", "setting": "[1]", "result": 1.25}, {"measurement": "Synergistic activity (FIC value) ATCC19606", "setting": "[2]", "result": 1.25}, {"measurement": "Synergistic activity (FIC value) ATCC25922", "setting": "[3]", "result": 0.53}, {"measurement": "Synergistic activity (FIC value) ATCC9027", "setting": "[4]", "result": 1.25}, {"measurement": "Antibacterial activity of the compound of Formula I, ATCC13883", "setting": "[5]", "result": 256, "unit": "µg/mL"}, {"measurement": "Antibacterial activity of the compound of Formula I, ATCC19606", "setting": "[6]", "result": 256, "unit": "µg/mL"}, {"measurement": "Antibacterial activity of the compound of Formula I, ATCC25922", "setting": "[7]", "result": 256, "unit": "µg/mL"}, {"measurement": "Antibacterial activity of the compound of Formula I, ATCC9027", "setting": "[8]", "result": 256, "unit": "µg/mL"}]}, {"smiles": "O=[N+]([O-])c1cc(-c2nc(N=C3NCCCN3)sc2Br)ccc1Br", "note": "[Compound I-176]", "values": [{"measurement": "Synergistic activity (FIC value) ATCC13883", "setting": "[1]", "result": 0.31}, {"measurement": "Synergistic activity (FIC value) ATCC19606", "setting": "[2]", "result": 0.13}, {"measurement": "Synergistic activity (FIC value) ATCC25922", "setting": "[3]", "result": 0.38}, {"measurement": "Synergistic activity (FIC value) ATCC9027", "setting": "[4]", "result": 0.53}, {"measurement": "Antibacterial activity of the compound of Formula I, ATCC13883", "setting": "[5]", "result": 256, "unit": "µg/mL"}, {"measurement": "Antibacterial activity of the compound of Formula I, ATCC19606", "setting": "[6]", "result": 256, "unit": "µg/mL"}, {"measurement": "Antibacterial activity of the compound of Formula I, ATCC25922", "setting": "[7]", "result": 256, "unit": "µg/mL"}, {"measurement": "Antibacterial activity of the compound of Formula I, ATCC9027", "setting": "[8]", "result": 256, "unit": "µg/mL"}]}, {"smiles": "NC(N)=Nc1nc(-c2ccc(O)c(CO)c2)cs1", "note": "[Compound I-121]", "values": [{"measurement": "Synergistic activity (FIC value) ATCC13883", "setting": "[1]", "result": 1.25}, {"measurement": "Synergistic activity (FIC value) ATCC19606", "setting": "[2]", "result": 1.25}, {"measurement": "Synergistic activity (FIC value) ATCC25922", "setting": "[3]", "result": 0.56}, {"measurement": "Synergistic activity (FIC value) ATCC9027", "setting": "[4]", "result": 1.25}, {"measurement": "MIC", "setting": "[5]; read-out: Antibacterial activity of the compound of Formula I, ATCC13883", "result": 256, "unit": "µg/mL"}, {"measurement": "MIC", "setting": "[6]; read-out: Antibacterial activity of the compound of Formula I, ATCC19606", "result": 256, "unit": "µg/mL"}, {"measurement": "MIC", "setting": "[7]; read-out: Antibacterial activity of the compound of Formula I, ATCC25922", "result": 256, "unit": "µg/mL"}, {"measurement": "MIC", "setting": "[8]; read-out: Antibacterial activity of the compound of Formula I, ATCC9027", "result": 256, "unit": "µg/mL"}]}, {"smiles": "Cc1ccccc1Oc1ccccc1-c1nc(N=C2NCCCN2)oc1Cl", "note": "[Compound I-142]", "values": [{"measurement": "Synergistic activity (FIC value) ATCC13883", "setting": "[1]", "result": 0.09}, {"measurement": "Synergistic activity (FIC value) ATCC19606", "setting": "[2]", "result": 0.31}, {"measurement": "Synergistic activity (FIC value) ATCC25922", "setting": "[3]", "result": 0.14}, {"measurement": "Synergistic activity (FIC value) ATCC9027", "setting": "[4]", "result": 0.06}, {"measurement": "Antibacterial activity of the compound of Formula I, ATCC13883", "setting": "[5]", "result": 256, "unit": "µg/mL"}, {"measurement": "Antibacterial activity of the compound of Formula I, ATCC19606", "setting": "[6]", "result": 256, "unit": "µg/mL"}, {"measurement": "Antibacterial activity of the compound of Formula I, ATCC25922", "setting": "[7]", "result": 256, "unit": "µg/mL"}, {"measurement": "Antibacterial activity of the compound of Formula I, ATCC9027", "setting": "[8]", "result": 256, "unit": "µg/mL"}]}, {"smiles": "Cc1sc(N=C(N)N)nc1-c1cccc2ccoc12", "note": "[Compound I-70]", "values": [{"measurement": "Synergistic activity (FIC value) ATCC13883", "setting": "[1]", "result": 1.25}, {"measurement": "Synergistic activity (FIC value) ATCC19606", "setting": "[2]", "result": 0.26}, {"measurement": "Synergistic activity (FIC value) ATCC25922", "setting": "[3]", "result": 1.25}, {"measurement": "Synergistic activity (FIC value) ATCC9027", "setting": "[4]", "result": 1.25}, {"measurement": "Antibacterial activity of the compound of Formula I, ATCC13883", "setting": "[5]", "result": 256, "unit": "µg/mL"}, {"measurement": "Antibacterial activity of the compound of Formula I, ATCC19606", "setting": "[6]", "result": 256, "unit": "µg/mL"}, {"measurement": "Antibacterial activity of the compound of Formula I, ATCC25922", "setting": "[7]", "result": 256, "unit": "µg/mL"}, {"measurement": "Antibacterial activity of the compound of Formula I, ATCC9027", "setting": "[8]", "result": 256, "unit": "µg/mL"}]}, {"smiles": "Cc1ccc(Sc2ccccc2-c2coc(N=C(N)N)n2)c(C)c1", "note": "[Compound I-108]", "values": [{"measurement": "Synergistic activity (FIC value) ATCC13883", "setting": "[1]", "result": 0.16}, {"measurement": "Synergistic activity (FIC value) ATCC19606", "setting": "[2]", "result": 0.03}, {"measurement": "Synergistic activity (FIC value) ATCC25922", "setting": "[3]", "result": 0.18}, {"measurement": "Synergistic activity (FIC value) ATCC9027", "setting": "[4]", "result": 0.28}, {"measurement": "Antibacterial activity of the compound of Formula I, ATCC13883", "setting": "[5]", "result": 256, "unit": "µg/mL"}, {"measurement": "Antibacterial activity of the compound of Formula I, ATCC19606", "setting": "[6]", "result": 256, "unit": "µg/mL"}, {"measurement": "Antibacterial activity of the compound of Formula I, ATCC25922", "setting": "[7]", "result": 256, "unit": "µg/mL"}, {"measurement": "Antibacterial activity of the compound of Formula I, ATCC9027", "setting": "[8]", "result": 256, "unit": "µg/mL"}]}]}
